Our source for the remaining activity values is paper PMC5564600 (Oncotarget, 2017).

SMILES strings stand for the structures. Read-outs that look alike come from different tables or passages of the source.

Assay in all cases: biochemical
What all share (type): binding

The target in experiment [1] is T1, panel of 442 kinases (Homo sapiens, UniProt P33981).
T1 construct: purchased Ambit Biosciences (scanMAXX KINOMEscan)
T1 sequence (P33981 1-857): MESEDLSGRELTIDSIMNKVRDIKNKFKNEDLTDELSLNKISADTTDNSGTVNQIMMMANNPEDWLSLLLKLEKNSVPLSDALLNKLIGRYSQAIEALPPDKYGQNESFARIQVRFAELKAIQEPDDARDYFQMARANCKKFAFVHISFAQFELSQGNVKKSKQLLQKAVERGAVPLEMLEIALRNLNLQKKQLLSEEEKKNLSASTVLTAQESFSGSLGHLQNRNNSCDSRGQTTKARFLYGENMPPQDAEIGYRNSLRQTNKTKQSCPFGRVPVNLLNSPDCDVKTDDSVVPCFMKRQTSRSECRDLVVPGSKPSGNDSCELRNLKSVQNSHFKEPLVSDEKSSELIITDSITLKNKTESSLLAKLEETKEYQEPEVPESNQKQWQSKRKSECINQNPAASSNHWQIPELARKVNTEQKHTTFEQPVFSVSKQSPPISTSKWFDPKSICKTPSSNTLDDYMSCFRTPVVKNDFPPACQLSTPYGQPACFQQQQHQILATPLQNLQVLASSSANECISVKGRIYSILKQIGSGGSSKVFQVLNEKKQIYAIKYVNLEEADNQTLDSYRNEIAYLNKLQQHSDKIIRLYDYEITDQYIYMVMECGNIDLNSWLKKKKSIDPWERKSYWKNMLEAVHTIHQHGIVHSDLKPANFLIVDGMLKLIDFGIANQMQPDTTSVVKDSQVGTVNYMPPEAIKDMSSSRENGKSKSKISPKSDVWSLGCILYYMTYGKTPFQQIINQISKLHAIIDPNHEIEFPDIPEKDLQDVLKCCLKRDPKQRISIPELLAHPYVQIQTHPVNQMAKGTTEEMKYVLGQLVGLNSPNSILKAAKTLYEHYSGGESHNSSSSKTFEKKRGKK
The following applies: kinase TTK; for remaining activity at 1 µM: read-out: TTK (% of control at 1 µM).

Experiment [2] deals with T2, panel of 442 kinases (Homo sapiens, UniProt O94806).
T2 construct: purchased Ambit Biosciences (scanMAXX KINOMEscan)
T2 sequence (O94806 1-890): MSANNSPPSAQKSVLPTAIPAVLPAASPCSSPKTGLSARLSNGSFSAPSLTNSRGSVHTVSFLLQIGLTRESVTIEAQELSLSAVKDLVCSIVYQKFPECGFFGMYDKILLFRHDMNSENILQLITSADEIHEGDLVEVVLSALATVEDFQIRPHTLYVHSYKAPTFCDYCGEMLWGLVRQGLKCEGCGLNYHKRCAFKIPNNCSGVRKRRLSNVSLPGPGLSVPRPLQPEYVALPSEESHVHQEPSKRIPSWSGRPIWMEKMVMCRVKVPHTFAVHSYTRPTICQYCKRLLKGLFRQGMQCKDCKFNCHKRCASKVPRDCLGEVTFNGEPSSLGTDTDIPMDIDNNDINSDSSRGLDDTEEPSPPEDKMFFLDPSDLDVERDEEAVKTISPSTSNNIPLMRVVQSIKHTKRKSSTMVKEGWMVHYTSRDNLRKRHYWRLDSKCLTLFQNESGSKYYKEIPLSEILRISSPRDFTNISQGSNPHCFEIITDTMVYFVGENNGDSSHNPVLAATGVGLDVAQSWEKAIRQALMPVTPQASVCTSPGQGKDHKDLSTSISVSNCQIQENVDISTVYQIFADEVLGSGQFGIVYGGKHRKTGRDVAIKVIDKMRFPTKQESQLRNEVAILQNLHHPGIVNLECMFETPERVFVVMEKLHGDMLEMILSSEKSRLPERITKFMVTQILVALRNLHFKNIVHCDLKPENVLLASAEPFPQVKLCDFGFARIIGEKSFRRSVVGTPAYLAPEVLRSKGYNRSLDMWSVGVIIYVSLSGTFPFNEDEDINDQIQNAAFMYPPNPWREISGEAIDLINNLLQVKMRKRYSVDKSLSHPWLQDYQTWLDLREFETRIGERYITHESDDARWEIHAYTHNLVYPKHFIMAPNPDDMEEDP
The following applies: kinase PRKD3; for remaining activity at 1 µM: read-out: PRKD3 (% of control at 1 µM).

Experiment [3] addresses T3, panel of 442 kinases (Homo sapiens, UniProt P07947).
T3 construct: purchased Ambit Biosciences (scanMAXX KINOMEscan)
The following applies: kinase YES; for remaining activity at 1 µM: read-out: YES (% of control at 1 µM).

Experiment [4] addresses T4, panel of 442 kinases (Homo sapiens, UniProt Q96GD4).
T4 construct: purchased Ambit Biosciences (scanMAXX KINOMEscan)
The note with it: AURKB; for remaining activity at 1 µM: read-out: % of control at 1 µM.

The target of experiment [5] is T5, panel of 442 kinases (Homo sapiens, UniProt Q15418).
T5 construct: purchased Ambit Biosciences (scanMAXX KINOMEscan)
T5 sequence (Q15418 whole entry): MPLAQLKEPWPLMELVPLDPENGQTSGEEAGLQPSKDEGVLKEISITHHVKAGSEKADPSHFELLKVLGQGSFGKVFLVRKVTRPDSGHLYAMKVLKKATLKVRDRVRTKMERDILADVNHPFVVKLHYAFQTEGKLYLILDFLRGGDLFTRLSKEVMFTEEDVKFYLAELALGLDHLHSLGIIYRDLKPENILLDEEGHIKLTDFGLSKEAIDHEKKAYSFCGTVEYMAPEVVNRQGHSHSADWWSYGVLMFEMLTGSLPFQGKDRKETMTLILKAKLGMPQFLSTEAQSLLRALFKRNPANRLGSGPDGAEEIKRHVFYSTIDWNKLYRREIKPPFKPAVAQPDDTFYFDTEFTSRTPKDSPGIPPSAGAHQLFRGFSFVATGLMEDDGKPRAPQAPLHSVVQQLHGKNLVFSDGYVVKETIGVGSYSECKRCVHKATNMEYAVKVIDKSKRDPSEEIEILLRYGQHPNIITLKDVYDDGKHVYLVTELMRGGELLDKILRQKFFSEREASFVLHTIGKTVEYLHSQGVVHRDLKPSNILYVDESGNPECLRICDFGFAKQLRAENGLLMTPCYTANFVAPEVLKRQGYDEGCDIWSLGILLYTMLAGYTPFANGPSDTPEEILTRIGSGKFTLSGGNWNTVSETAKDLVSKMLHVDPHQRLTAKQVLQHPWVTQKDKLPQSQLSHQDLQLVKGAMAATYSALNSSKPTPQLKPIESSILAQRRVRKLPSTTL

The target of experiment [6] is T6, panel of 442 kinases (Homo sapiens, UniProt P08069).
T6 construct: purchased Ambit Biosciences (scanMAXX KINOMEscan)
T6 sequence (P08069 31-1367): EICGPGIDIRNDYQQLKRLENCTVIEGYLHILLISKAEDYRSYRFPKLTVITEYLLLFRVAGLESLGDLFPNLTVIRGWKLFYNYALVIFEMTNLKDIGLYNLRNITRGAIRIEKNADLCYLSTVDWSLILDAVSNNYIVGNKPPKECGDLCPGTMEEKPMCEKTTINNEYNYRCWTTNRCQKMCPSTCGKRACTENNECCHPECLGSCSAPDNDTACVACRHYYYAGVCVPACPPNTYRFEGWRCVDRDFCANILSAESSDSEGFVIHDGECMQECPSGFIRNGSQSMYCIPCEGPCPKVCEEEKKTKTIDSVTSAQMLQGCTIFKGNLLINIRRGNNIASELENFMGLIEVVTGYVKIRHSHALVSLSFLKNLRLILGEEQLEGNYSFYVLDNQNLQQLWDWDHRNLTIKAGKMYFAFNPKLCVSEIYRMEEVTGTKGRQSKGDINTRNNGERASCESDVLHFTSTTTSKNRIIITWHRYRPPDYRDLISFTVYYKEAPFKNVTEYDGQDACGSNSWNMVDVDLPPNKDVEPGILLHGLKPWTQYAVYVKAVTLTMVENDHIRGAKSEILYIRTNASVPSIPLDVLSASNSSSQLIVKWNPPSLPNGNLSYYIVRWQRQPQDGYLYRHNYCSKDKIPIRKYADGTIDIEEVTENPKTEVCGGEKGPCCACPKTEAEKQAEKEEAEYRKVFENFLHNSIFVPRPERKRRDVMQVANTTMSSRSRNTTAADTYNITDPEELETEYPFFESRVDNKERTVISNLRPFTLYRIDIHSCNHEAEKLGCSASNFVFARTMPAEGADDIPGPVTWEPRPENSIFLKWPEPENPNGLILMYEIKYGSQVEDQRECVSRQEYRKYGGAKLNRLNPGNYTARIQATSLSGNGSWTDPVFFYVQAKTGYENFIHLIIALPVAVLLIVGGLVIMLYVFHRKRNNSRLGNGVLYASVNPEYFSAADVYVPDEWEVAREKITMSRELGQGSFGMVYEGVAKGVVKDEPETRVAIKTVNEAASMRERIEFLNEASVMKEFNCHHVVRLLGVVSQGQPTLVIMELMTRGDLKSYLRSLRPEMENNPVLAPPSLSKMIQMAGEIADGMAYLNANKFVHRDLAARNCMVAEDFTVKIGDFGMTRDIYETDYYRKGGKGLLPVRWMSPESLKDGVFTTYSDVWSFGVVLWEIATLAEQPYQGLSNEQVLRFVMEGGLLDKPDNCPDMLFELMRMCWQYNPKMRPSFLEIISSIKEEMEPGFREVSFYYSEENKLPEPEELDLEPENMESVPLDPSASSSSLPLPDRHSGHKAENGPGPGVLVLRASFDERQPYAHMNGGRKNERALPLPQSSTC
The following applies: kinase IGF1R; for remaining activity at 1 µM: read-out: % of control at 1 µM.

Experiment [7] deals with T7, panel of 442 kinases (Homo sapiens, UniProt Q9P1W9).
T7 construct: purchased Ambit Biosciences (scanMAXX KINOMEscan)
T7 sequence (Q9P1W9 whole entry): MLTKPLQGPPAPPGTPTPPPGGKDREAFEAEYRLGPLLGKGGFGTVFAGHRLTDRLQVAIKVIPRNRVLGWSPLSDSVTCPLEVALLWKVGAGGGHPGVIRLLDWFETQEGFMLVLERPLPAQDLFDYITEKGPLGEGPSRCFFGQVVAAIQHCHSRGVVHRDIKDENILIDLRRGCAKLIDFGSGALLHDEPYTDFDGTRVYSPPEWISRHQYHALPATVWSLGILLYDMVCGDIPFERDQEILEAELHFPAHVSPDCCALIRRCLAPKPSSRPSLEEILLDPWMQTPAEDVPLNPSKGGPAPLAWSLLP
The note with it: kinase PIM2; for remaining activity at 1 µM: read-out: % of control at 1 µM.

Experiment [8] deals with T8, panel of 442 kinases (Homo sapiens, UniProt O14757).
T8 construct: purchased Ambit Biosciences (scanMAXX KINOMEscan)
T8 sequence (O14757 1-476): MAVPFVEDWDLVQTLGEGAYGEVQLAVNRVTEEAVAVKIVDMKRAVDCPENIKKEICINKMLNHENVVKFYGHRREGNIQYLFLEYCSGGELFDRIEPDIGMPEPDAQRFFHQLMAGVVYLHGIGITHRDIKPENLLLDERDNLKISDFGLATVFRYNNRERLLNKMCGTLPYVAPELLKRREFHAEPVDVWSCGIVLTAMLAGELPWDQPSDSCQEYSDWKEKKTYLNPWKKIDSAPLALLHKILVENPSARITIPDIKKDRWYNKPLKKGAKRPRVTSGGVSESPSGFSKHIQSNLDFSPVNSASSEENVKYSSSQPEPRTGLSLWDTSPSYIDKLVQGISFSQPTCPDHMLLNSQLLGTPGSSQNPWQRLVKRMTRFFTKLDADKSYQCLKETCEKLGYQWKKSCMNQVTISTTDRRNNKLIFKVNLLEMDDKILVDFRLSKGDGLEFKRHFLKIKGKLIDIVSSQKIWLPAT
The following applies: CHEK1; for remaining activity at 1 µM: read-out: % of control at 1 µM.

The target in experiment [9] is T9, panel of 442 kinases (Homo sapiens, UniProt Q9Y5S2).
T9 construct: purchased Ambit Biosciences (scanMAXX KINOMEscan)
T9 sequence (Q9Y5S2 whole entry): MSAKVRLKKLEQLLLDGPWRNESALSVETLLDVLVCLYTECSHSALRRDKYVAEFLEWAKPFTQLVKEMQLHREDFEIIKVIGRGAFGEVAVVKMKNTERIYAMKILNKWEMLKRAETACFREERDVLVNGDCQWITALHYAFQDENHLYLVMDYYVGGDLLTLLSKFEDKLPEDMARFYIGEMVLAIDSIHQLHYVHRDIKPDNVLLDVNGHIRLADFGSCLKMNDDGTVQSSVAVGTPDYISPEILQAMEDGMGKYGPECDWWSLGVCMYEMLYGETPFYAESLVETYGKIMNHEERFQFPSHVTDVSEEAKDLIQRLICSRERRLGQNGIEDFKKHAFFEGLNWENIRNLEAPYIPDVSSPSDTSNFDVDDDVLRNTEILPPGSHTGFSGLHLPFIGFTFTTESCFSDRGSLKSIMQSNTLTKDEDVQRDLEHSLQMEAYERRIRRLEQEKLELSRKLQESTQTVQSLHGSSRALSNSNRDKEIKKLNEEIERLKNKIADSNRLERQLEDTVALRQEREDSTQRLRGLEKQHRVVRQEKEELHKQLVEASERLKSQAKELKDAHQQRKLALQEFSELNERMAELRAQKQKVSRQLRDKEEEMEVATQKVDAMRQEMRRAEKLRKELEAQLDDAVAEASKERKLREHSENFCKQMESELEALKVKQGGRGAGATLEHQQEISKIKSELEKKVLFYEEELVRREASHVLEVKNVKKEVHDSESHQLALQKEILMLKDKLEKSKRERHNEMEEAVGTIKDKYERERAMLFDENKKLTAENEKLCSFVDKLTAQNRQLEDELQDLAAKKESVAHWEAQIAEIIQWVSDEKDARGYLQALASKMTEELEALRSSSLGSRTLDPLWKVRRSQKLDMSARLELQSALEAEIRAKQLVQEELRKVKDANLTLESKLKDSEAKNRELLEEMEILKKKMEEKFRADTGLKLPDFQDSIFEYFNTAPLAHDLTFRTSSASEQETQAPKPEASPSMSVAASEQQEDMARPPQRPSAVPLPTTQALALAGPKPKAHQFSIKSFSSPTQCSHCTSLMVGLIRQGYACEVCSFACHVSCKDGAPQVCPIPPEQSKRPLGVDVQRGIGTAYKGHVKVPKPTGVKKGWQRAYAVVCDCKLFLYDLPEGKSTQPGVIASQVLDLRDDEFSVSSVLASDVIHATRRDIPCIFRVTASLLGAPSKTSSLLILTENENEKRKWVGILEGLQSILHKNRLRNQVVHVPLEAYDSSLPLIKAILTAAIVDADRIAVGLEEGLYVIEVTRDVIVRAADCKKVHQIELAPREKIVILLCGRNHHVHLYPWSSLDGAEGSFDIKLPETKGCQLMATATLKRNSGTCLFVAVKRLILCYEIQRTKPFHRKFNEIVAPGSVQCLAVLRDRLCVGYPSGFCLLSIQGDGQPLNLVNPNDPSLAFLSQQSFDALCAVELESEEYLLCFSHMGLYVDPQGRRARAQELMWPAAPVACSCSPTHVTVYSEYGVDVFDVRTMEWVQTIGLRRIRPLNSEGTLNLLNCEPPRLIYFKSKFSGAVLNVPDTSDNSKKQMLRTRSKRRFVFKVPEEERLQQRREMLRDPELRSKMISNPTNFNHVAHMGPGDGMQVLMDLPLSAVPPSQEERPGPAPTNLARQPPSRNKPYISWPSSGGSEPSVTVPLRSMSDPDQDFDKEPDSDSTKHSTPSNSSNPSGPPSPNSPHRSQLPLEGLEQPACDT
The note with it: kinase MRCKB; for remaining activity at 1 µM: read-out: % of control at 1 µM.

[10] abbreviates: 10 µM, read-out: % of control at 10 µM.
[11] abbreviates: kinase RSK1(Kin.Dom.1-N-terminal), read-out: RSK1(Kin.Dom.1-N-terminal) (% of control at 1 µM).
[12] abbreviates: kinase RSK1(Kin.Dom.2-C-terminal), read-out: RSK1(Kin.Dom.2-C-terminal) (% of control at 1 µM).

T3 sequence (P07947 whole entry): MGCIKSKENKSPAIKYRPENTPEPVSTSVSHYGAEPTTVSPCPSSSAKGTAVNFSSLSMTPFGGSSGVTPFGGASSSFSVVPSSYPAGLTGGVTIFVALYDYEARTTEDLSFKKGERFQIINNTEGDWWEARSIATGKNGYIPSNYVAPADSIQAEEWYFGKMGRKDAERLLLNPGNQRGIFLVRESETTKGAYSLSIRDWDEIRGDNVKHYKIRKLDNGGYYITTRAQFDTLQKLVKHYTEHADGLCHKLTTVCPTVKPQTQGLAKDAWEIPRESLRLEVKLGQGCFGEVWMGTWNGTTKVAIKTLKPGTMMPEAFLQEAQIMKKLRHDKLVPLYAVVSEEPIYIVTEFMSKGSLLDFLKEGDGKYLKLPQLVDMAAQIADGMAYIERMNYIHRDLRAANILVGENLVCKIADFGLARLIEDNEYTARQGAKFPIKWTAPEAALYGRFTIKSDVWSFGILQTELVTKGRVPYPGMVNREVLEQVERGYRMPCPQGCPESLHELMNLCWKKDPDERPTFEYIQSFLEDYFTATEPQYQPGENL
T4 sequence (Q96GD4 whole entry): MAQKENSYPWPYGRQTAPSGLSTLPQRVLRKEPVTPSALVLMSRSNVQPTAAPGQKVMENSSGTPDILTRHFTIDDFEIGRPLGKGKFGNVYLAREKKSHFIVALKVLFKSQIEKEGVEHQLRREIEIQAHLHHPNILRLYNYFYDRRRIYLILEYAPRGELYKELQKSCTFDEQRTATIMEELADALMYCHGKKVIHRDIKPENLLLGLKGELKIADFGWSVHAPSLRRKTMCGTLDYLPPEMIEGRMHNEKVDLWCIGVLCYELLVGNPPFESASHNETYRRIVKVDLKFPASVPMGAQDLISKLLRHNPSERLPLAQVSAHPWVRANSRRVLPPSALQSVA

`Nc1cc(C(F)(F)F)c(-c2cc(N3CCOCC3)nc(N3CCOCC3)n2)cn1` [Buparlisib]: the remaining activity at 1 µM is 100% on panel of 442 kinases [1]; 94% on panel of 442 kinases [2]; 100% at panel of 442 kinases [3]; 93% at panel of 442 kinases [4]; 100% at panel of 442 kinases [5] (setting [11]); 97% at panel of 442 kinases [5] (setting [12]). Further, the remaining activity at 1 µM on panel of 442 kinases [6] was found to be 100%; on panel of 442 kinases [7], 91%; on panel of 442 kinases [8] it was 79%; at panel of 442 kinases [9], 100%. Moreover, the remaining activity at 10 µM amounted to 85% on panel of 442 kinases [1] (10 µM, read-out: TTK (% of control at 10 µM)); 100% on panel of 442 kinases [2] (10 µM, read-out: PRKD3 (% of control at 10 µM)); 100% on panel of 442 kinases [3] (10 µM, read-out: YES (% of control at 10 µM)); 100% at panel of 442 kinases [4] (setting [10]); 100% on panel of 442 kinases [5] (kinase RSK1(Kin.Dom.1-N-terminal), read-out: RSK1(Kin.Dom.1-N-terminal) (% of control at 10 µM)); 98% at panel of 442 kinases [5] (kinase RSK1(Kin.Dom.2-C-terminal), read-out: RSK1(Kin.Dom.2-C-terminal) (% of control at 10 µM)). Further, the remaining activity at 10 µM at panel of 442 kinases [6] (setting [10]) stood at 100%; at panel of 442 kinases [7] (setting [10]), 100%; on panel of 442 kinases [8] (setting [10]) it was 82%; at panel of 442 kinases [9] (setting [10]), 100%.

For `Cn1c(=O)n(-c2ccc(C(C)(C)C#N)cc2)c2c3cc(-c4cnc5ccccc5c4)ccc3ncc21` [Dactolisib, 2-methyl-2-[4-(3-methyl-2-oxo-8-quinolin-3-yl-2,3-dihydroimidazo[4,5-c]quinolin-1-yl)-phenyl] propionitrile], the remaining activity at 1 µM on panel of 442 kinases [1] is 49%; on panel of 442 kinases [2], 100%; at panel of 442 kinases [3], 100%; at panel of 442 kinases [5] (setting [11]), 77%; on panel of 442 kinases [5] (setting [12]), 61%; on panel of 442 kinases [6] it was 95%. Also, the remaining activity at 1 µM at panel of 442 kinases [7] came to 100%; at panel of 442 kinases [8], 100%; on panel of 442 kinases [9] it was 86%.

`FC(F)c1nc2ccccc2n1-c1nc(N2CCOCC2)nc(N2CCOCC2)n1` [ZSTK474, 2-(difluoromethyl)-1-[4,6-di(4-morpholinyl)-1,3,5-triazin-2-yl]-1H-benzimidazole]: the remaining activity at 1 µM amounted to 100% at panel of 442 kinases [1]; 100% at panel of 442 kinases [2]; 100% at panel of 442 kinases [3]; 90% on panel of 442 kinases [4]; 100% at panel of 442 kinases [5] (setting [11]); 83% at panel of 442 kinases [5] (setting [12]). For the same compound, the remaining activity at 1 µM on panel of 442 kinases [6] turned out to be 100%; at panel of 442 kinases [7] it was 100%; at panel of 442 kinases [8], 92%; on panel of 442 kinases [9], 80%.

In the case of `COc1ncc(-c2ccc3nccc(-c4ccnnc4)c3c2)cc1NS(=O)(=O)c1ccc(F)cc1F` [Omipalisib], the remaining activity at 1 µM at panel of 442 kinases [1] was determined as 76%; on panel of 442 kinases [2], 100%; on panel of 442 kinases [3], 100%; at panel of 442 kinases [4], 100%; at panel of 442 kinases [5] (setting [11]), 95%; at panel of 442 kinases [5] (setting [12]), 95%. The remaining activity at 1 µM at panel of 442 kinases [6] turned out to be 100%; on panel of 442 kinases [7], 98%; on panel of 442 kinases [8] it was 100%; on panel of 442 kinases [9], 100%.
